Key:
[1] = tested on: Bax; test: Bax activation assay in MCF-7 cells; format: cell-based, human; conditions: for Bax Conc.: treated at IC50 values; for Bax Fold change: versus untreated control
Experimental: This lysate was diluted in Standard Diluent Buffer over the range of the assay and measured for human active caspase-8 content. (Cells are Plated in a density of 1.2 – 1.8 × 10,000 cells/well in a volume of 100µl complete growth medium + 100 ul of the tested compound per well in a 96-well plate for 24 hours before the enzyme assay for […].). […]
4.2.7. Bax activation assay
Bring all reagents, except the human Bax-α Standard, to room temperature for at least 30 minutes prior to opening. The human Bax-α Standard solution should not be left at room temperature for more than 10 minutes. All standards, controls and samples should be run in duplicate. Refer to the Assay Layout Sheet to determine the number of wells to be used and put any remaining wells with the desiccant back into the pouch and seal the ziploc. Store unused wells at 4 °C. Pipet 100 μL of Assay Buffer into the S0 (0 pg/mL standard) wells. Pipet 100 μL of Standards #1 through #6 into the appropriate wells. Pipet 100 μL of the Samples into the appropriate wells. Tap the plate gently to mix the contents. Seal the plate and incubate at room temperature on a plate shaker for 1 hour at ~500 rpm. Empty the contents of the wells and wash by adding 400 μL of wash solution to every well.
Repeat the wash 4 more times for a total of 5 washes. After the final wash, empty or aspirate the wells and firmly tap the plate on a lint free paper towel to remove any remaining wash buffer. Pipet 100 μL of yellow Antibody into each well, except the Blank. Seal the plate and incubate at room temperature on a plate shaker for 1 hour at ~500 rpm. Empty the contents of the wells and wash by adding 400 μL of wash solution to every well. Repeat the wash 4 more times for a total of 5 washes.
After the final wash, empty or aspirate the wells and firmly tap the plate on a lint free paper towel to remove any remaining wash buffer. Add 100 μL of blue Conjugate to each well, except the Blank.
Seal the plate and incubate at room temperature on a plate shaker for 30 minutes at ~500 rpm. Empty the contents of the wells and wash by adding 400 μL of wash solution to every well. Repeat the wash 4 more times for a total of 5 washes. After the final wash, empty or aspirate the wells and firmly tap […]
the plate on a lint free paper towel to remove any remaining wash buffer. Pipet 100 μL of Substrate Solution into each well. Incubate for 30 minutes at room temperature on a plate shaker at ~500 rpm.
Pipet 100 μL Stop Solution to each well. Blank the plate reader against the Blank wells, read the optical density at 450 nm. Calculate the average net Optical Density (OD) bound for each standard and sample by subtracting the average Blank OD from the average OD for each standard and sample.
Using linear graph paper, plot the Average Net OD for each standard versus Bax concentration in each standard. Approximate a straight line through the points. The concentration of Bax in the unknowns can be determined by interpolation. […]
Remove plate cover and empty the wells. […]
Incubate the microwell strips at room temperature (18° to 25°C) for about 15 minutes, if

[2] = biological target: EGFR (Homo sapiens, UniProt P00533); test: EGFR inhibitory assay (EGFR-TK assay)
[3] = biological target: HER2 (Homo sapiens, UniProt P04626); test: HER2 inhibitory assay (ADP-Glo kinase assay)
Sequence of HER2 (P04626 676-1255 limits assumed): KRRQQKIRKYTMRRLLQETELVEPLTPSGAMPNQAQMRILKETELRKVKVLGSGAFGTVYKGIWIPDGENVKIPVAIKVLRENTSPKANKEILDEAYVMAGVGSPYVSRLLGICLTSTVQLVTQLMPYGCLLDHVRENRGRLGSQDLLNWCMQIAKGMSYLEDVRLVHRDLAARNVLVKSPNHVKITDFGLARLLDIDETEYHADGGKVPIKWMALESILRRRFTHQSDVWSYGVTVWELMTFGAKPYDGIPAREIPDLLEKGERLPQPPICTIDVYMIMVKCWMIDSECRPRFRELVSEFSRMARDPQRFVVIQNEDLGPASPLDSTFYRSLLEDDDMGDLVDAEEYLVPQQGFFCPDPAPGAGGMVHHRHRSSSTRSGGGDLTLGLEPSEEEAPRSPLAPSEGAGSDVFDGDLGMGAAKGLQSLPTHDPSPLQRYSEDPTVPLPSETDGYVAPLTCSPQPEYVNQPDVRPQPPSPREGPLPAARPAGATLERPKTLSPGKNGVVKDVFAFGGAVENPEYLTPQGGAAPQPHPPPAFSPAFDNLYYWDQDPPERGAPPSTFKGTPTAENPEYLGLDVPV

Sequence of EGFR (P00533 669-1210): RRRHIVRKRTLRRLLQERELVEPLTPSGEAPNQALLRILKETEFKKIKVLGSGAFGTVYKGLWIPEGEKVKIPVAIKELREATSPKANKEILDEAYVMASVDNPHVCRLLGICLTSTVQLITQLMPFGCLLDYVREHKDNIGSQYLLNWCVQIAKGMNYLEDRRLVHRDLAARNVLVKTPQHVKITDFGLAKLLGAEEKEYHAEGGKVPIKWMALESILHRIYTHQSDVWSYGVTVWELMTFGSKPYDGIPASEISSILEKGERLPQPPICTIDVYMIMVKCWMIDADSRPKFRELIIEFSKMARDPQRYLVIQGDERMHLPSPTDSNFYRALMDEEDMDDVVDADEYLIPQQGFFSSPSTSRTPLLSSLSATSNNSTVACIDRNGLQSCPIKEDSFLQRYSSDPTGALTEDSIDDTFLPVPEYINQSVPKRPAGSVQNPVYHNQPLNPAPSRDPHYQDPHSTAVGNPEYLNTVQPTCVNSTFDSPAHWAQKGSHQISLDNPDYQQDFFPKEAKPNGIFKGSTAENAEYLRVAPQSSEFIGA

melting point | IC50 [2] | IC50 [3] | Structure (SMILES) | Bax Conc. [1] | Bax Fold change [1]
327 to 329 °C | 79 ± 5 nM | 39 ± 2 nM | O=c1[nH]c2ccccc2c(O)c1/C=N/c1nc(-c2ccncc2)n[nH]1 [Compound 3e, (E)-4-hydroxy-3-(((3-(pyridin-4-yl)-1H-1,2,4-triazol-5-yl)imino)methyl)quinolin-2(1H)-one] | 316 ± 3 pg/mL | 35
 | 71 ± 4 nM | 31 ± 2 nM | O=c1[nH]c2ccccc2c(O)c1C=Nc1ccc(NS(=O)(=O)c2ncccn2)cc1 [Compound 5a, N-(4-(((4-hydroxy-2-oxo-1,2-dihydroquinolin-3-yl)methylene)amino)phenyl) pyrimidine-2-sulfonamide] | 350 ± 3 pg/mL | 39

Source: publication PMC11492426, “Design, synthesis, and biological evaluation of novel quinoline-based EGFR/HER-2 dual-target inhibitors as potential anti-tumor agents” (RSC Advances, 2024)
